Assay results as given in ChEMBL document CHEMBL5303573, “Mapping human microbiome drug metabolism by gut bacteria and their genes” (Nature, 2019).

Legend:
[1] = parabacteroides johnsonii, 12 h, 2 µM
Description: The drug is tested on Parabacteroides johnsonii strain: DSM18315 for biotransformation. The drug concentrations were measured before and after a 12-h incubation by liquid-chromatography-coupled mass spectrometry (LC–MS)

[2] = akkermansia muciniphila, 12 h, 2 µM
Description: The drug is tested on Akkermansia muciniphila strain: ATCC BAA-835 for biotransformation. The drug concentrations were measured before and after a 12-h incubation by liquid-chromatography-coupled mass spectrometry (LC–MS)

[3] = bacteroides fragilis, 12 h, 2 µM
Description: The drug is tested on Bacteroides fragilis strain: 3397 (T10) for biotransformation. The drug concentrations were measured before and after a 12-h incubation by liquid-chromatography-coupled mass spectrometry (LC–MS)

[4] = The drug is tested on Bacteroides fragilis strain: HMW615 for biotransformation. The drug concentrations were measured before and after a 12-h incubation by liquid-chromatography-coupled mass spectrometry (LC–MS); conditions: 2 µM
[5] = The drug is tested on Eubacterium rectale strain: ATCC33656 for biotransformation. The drug concentrations were measured before and after a 12-h incubation by liquid-chromatography-coupled mass spectrometry (LC–MS); conditions: agathobacter rectalis, 2 µM
[6] = The drug is tested on Providencia rettgeri strain: DSM1131 for biotransformation. The drug concentrations were measured before and after a 12-h incubation by liquid-chromatography-coupled mass spectrometry (LC–MS); format: ADME; design: dose 2 uM, timepoint 0 vs 12 hours; conditions: 2 µM
[7] = The drug is tested on Bacteroides fragilis strain: ATCC43859 for biotransformation. The drug concentrations were measured before and after a 12-h incubation by liquid-chromatography-coupled mass spectrometry (LC–MS); conditions: 2 µM
[8] = The drug is tested on Collinsella aerofaciens strain: ATCC25986 for biotransformation. The drug concentrations were measured before and after a 12-h incubation by liquid-chromatography-coupled mass spectrometry (LC–MS); conditions: 2 µM
[9] = The drug is tested on Providencia stuartii strain: ATCC25827 for biotransformation. The drug concentrations were measured before and after a 12-h incubation by liquid-chromatography-coupled mass spectrometry (LC–MS); conditions: 2 µM
[10] = The drug is tested on Bacteroides sp. WH2 strain: WH2 for biotransformation. The drug concentrations were measured before and after a 12-h incubation by liquid-chromatography-coupled mass spectrometry (LC–MS); conditions: bacteroides sp. wh2, 12 h, 2 µM
[11] = The drug is tested on Collinsella intestinalis strain: DSM13280 for biotransformation. The drug concentrations were measured before and after a 12-h incubation by liquid-chromatography-coupled mass spectrometry (LC–MS); conditions: 2 µM
[12] = The drug is tested on Dorea formicigenerans strain: ATCC27755 for biotransformation. The drug concentrations were measured before and after a 12-h incubation by liquid-chromatography-coupled mass spectrometry (LC–MS); conditions: 2 µM
[13] = The drug is tested on Bacteroides xylanisolvens strain: DSM18836 for biotransformation. The drug concentrations were measured before and after a 12-h incubation by liquid-chromatography-coupled mass spectrometry (LC–MS); conditions: 2 µM
[14] = bacteroides thetaiotaomicron, 12 h, 2 µM
Description: The drug is tested on Bacteroides thetaiotaomicron strain: VPI-5482 for biotransformation. The drug concentrations were measured before and after a 12-h incubation by liquid-chromatography-coupled mass spectrometry (LC–MS)

[15] = The drug is tested on Clostridium sporogenes strain: ATCC15579 for biotransformation. The drug concentrations were measured before and after a 12-h incubation by liquid-chromatography-coupled mass spectrometry (LC–MS); conditions: 2 µM
[16] = The drug is tested on Bacteroides ovatus strain: ATCC8483 for biotransformation. The drug concentrations were measured before and after a 12-h incubation by liquid-chromatography-coupled mass spectrometry (LC–MS); conditions: 2 µM
[17] = The drug is tested on Bacteroides coprophilus strain: DSM18228 for biotransformation. The drug concentrations were measured before and after a 12-h incubation by liquid-chromatography-coupled mass spectrometry (LC–MS); conditions: 2 µM
[18] = The drug is tested on Odoribacter splanchnicus strain: fecal isolate for biotransformation. The drug concentrations were measured before and after a 12-h incubation by liquid-chromatography-coupled mass spectrometry (LC–MS); conditions: 2 µM
[19] = bacteroides thetaiotaomicron, 12 h, 2 µM; remark: listed apart in the source
Description: The drug is tested on Bacteroides thetaiotaomicron strain: 3731 for biotransformation. The drug concentrations were measured before and after a 12-h incubation by liquid-chromatography-coupled mass spectrometry (LC–MS)

Measured: Bacterial Biotransformation

c1ccc2[nH]c(-c3cscn3)nc2c1 [THIABENDAZOLE]
not listed: [16] | [17] | [18] | [19]
Compound NOT metabolized: all other assays above

COc1cc2nc(N(C)CCCNC(=O)C3CCCO3)nc(N)c2cc1OC (stereo not drawn) [ALFUZOSIN]
not listed: [1] | [3]
Compound NOT metabolized: all other assays above

O=C(NCc1ccccc1)OCCO [BURAMATE]
not listed: [9]
Compound NOT metabolized: all other assays above

O=c1n(CCCN2CCN(c3cccc(Cl)c3)CC2)nc2ccccn12 [TRAZODONE]
not listed: [18]
Compound NOT metabolized: all other assays above
